Results reported in ChEMBL document CHEMBL1132705, “Synthesis and biological activities of spiroheterocyclic growth hormone secretagogues” (Bioorg Med Chem Lett, 1999).

How the values were obtained:
[1] = species on record: Rattus norvegicus; assay: Stimulation of growth hormone (GH) release determined in vitro by rat pituitary cell assay.; type: functional; details: Pituitary gland cell
[2] = species on record: Canis familiaris; assay: Minimum effective dose required for oral activity in beagles that caused at least five fold elevation of growth hormone (GH) over basal levels; type: functional; details: Canis lupus familiaris, read-out: MED

SMILES	EC50 [1] [nM]	minimal effective dose [2] [mg/kg]
CC(C)(N)C(=O)N[C@H](COCc1ccccc1)C(=O)N1CCC2(CC1)C[S+]([O-])c1ccccc12 (stereo partly specified)	8.5	
CC(C)(N)C(=O)N[C@H](Cc1c[nH]c2ccccc12)C(=O)N1CCC2(CC1)CSc1ccccc12	5.6	
CC(C)(N)C(=O)N[C@H](CCC1CCCCC1)C(=O)N1CCC2(CCc3ccccc32)CC1	21	
CC(C)(N)C(=O)N[C@H](CCCc1ccccc1)C(=O)N1CCC2(CC1)C[S+]([O-])c1ccccc12.Cl (stereo partly specified)	2	0.25
CC(C)(N)C(=O)N[C@H](COCc1ccccc1)C(=O)N1CCC2(CC1)COc1ccccc12	8.5	
CC(C)(N)C(=O)N[C@H](COCc1ccccc1)C(=O)N1CCC2(CC1)CSc1ccccc12	10	
CC(C)(N)C(=O)N[C@H](Cc1c[nH]c2ccccc12)C(=O)N1CCC2(CC1)CS(=O)(=O)c1ccccc12	2.1	
CC(C)(N)C(=O)N[C@H](CCc1ccccc1)C(=O)N1CCC2(CC1)CS(=O)(=O)c1ccccc12	6	
CC(C)(N)C(=O)N[C@H](CCc1ccccc1)C(=O)N1CCC2(CC1)CSc1ccccc12	57	
CC(C)(N)C(=O)N[C@H](CCC1CCCCC1)C(=O)N1CCC2(CC1)C[S+]([O-])c1ccccc12 (stereo partly specified)	3.4	
CC(C)(N)C(=O)N[C@H](CCC1CCCCC1)C(=O)N1CCC2(CC1)CSc1ccccc12	8.1	
CC(C)(N)C(=O)N[C@H](CCCc1ccccc1)C(=O)N1CCC2(CCc3ccccc32)CC1.Cl		5
CC(C)(N)C(=O)N[C@H](CCc1ccccc1)C(=O)N1CCC2(CCc3ccccc32)CC1	22	
CC(C)(N)C(=O)N[C@H](COCc1ccccc1)C(=O)N1CCC2(CC1)CS(=O)(=O)c1ccccc12	5	
CC(C)(N)C(=O)N[C@H](CCCc1ccccc1)C(=O)N1CCC2(CC1)CS(=O)(=O)c1ccccc12.Cl	1.1	0.125
CC(C)(N)C(=O)N[C@H](CCCc1ccccc1)C(=O)N1CCC2(CC1)CSc1ccccc12	4.8	
CC(C)(N)C(=O)N[C@H](CCC1CCCCC1)C(=O)N1CCC2(CC1)CS(=O)(=O)c1ccccc12.Cl	1.4	0.25
CC(C)(N)C(=O)N[C@H](CCCc1ccccc1)C(=O)N1CCC2(CC1)COc1ccccc12	2.7	
